One compound from paper PMC7948422, “Repurposing p97 inhibitors for chemical modulation of the bacterial ClpB–DnaK bichaperone system” (The Journal of Biological Chemistry, 2020) can be followed below.

The structures appear in SMILES notation. “And” between values parts separate entries of the source, which are not always exact repeats. Equal entries are not always repeated. “Also recorded” adds a separate entry of the source.

Assay [1] deals with E. coli MC4100. The assay is described as follows: Bacterial growth and viability, E. coli MC4100. The class given is cell-based, Escherichia coli. Here is the method: (§1) E. coli MC4100, MC4100ΔclpB, dnaK103, and dnaK756 strains were used to determine an influence of DBeQ on bacterial growth and viability. Bacteria were maintained in the LB media, and in the case of the MC4100ΔclpB strain, LB was supplemented with 30 μg/ml kanamycin. All experiments were initiated by preparing overnight cultures inoculated from single colonies and grown at 37 °C. The dnaK103 and dnaK756 overnight cultures were grown at 30 °C. On the following day, the cultures were diluted 100-fold in 10 ml of LB without antibiotics and incubated at 37 °C. The culture optical density was monitored at 600 nm. When absorbance at 600 nm reached 0.4, the culture was divided into 1-ml aliquots and supplemented with 10 μl of DMSO or different concentrations of DBeQ in DMSO. The samples were immediately transferred into an incubator/shaker at temperature 37, 45, or 50 °C. Bacteria were cultured for up to 4 h with shaking (200 RPM). At specific time points, 100 μl of each culture was withdrawn and serially diluted in sterile 0.9% NaCl up to 10^6-fold dilution. To estimate the number of viable cells, 5 μl or 10 μl of the diluted cultures was spread on the LB-agar plate without an antibiotic. After a complete adsorption of liquid on the LB-agar surface, the plates were incubated overnight at 37 °C. On the following day, the bacterial colonies were counted and the colony-forming units/ml were calculated.

Assay [2] addresses T1, ClpB E279Q/E678Q (Escherichia coli, UniProt P63284, E279Q/E678Q).
T1 construct: made in house
The assay is described as follows: FITC-casein fluorescence anisotropy titration with ClpB E279Q/E678Q. In kind it is binding. Here is the method: To monitor interactions between casein and ClpB, we used FITC-casein and the substrate-trapping ClpB E279Q/E678Q variant ([52], [73]). The titration of FITC-casein with ClpB E279Q/E678Q in the presence of ATP or ADP and the fluorescence anisotropy measurements were performed as previously described ([65]).
On the technique in general: Polarisation of emitted light reports the rotation of a fluorescent probe.

In assay [3] the target is T2, DnaK (Escherichia coli, UniProt P0A6Y8).
T2 construct: full-length E. coli DnaK (residues 1–638); made in house; host or cells: E. coli BL21(DE3)
The assay is described as follows: Surface plasmon resonance, immobilized DnaK. The class given is binding. Here is the method: ClpB, DnaK, and the NBD of DnaK were extensively dialyzed against the SPR buffer (20-mM Hepes, pH 7.4, 150-mM NaCl, 20-mM MgCl2, 1-mM EDTA, 1-mM DTT). After dialysis, the protein concentration was determined by the Bradford method. The DBeQ–protein interactions were studied using a Biacore T200 instrument (GE Healthcare) at 25 °C. The proteins were diluted to 300 μg/ml in 10-mM sodium acetate buffer (pH 5 for ClpB DnaK or pH 4 for NBD) and immobilized on HC1500M sensor chips (Xantec) by standard amine coupling chemistry as described previously ([70]). A reference flow cell was created by ethyl(dimethylaminopropyl) carbodiimide/N-hydroxysuccinimide activation followed by quenching with 1 M ethanolamine (pH 9.0). Solvent correction curves were obtained at the beginning and end and after every 50 injection cycles by injecting varying DMSO concentrations (4.0, 4.4, 4.6, 4.8, 5.0, 5.2, 5.4, and 5.9% [v/v]). […]
Binding isotherms were obtained with the ligand diluted to different concentrations in the SPR running buffer HBSMTD (20-mM Hepes, pH 7.4, 140-mM NaCl, 20-mM MgCl2, 5% (v/v) DMSO, 0.005% (v/v) Tween-20). […] The dissociation constants determined from those experiments were ∼20 μM for ATPγS and ∼2 mM for adenosine. […]
The resulting sensorgrams were analyzed using Biacore T200 Evaluation Software v3.0 according to the following procedure. […]
Background: Surface plasmon resonance follows binding to a sensor surface in real time, without labels.

Assay [4] has as its system ΔclpB E. coli expressing ClpB–YFP. The assay is described as follows: Viability of ΔclpB strain expressing ClpB-YFP. In kind it is cell-based, Escherichia coli. As to conditions: 45 °C, 3 h. Here is the method: as §1, with “At specific time points, 100 μl of each culture was withdrawn and serially diluted in sterile 0.9% NaCl up to 10^6-fold dilution. To estimate the number of viable cells, 5 μl or 10 μl of the diluted cultures was spread on the LB-agar plate without an antibiotic. After a complete adsorption of liquid on the LB-agar surface, the plates were incubated overnight at 37 °C.” left out
Supplementary Figure 10. […] (Top) ClpB was detected using Western blotting. […]
(Bottom) Western blot analysis of the bacterial lysates with anti-ClpB antibody. […] The detected signals correspond to the full-length ClpB-YFP (ClpB95-YFP) and the N-terminally truncated ClpB80-YFP (1,2). […]

Assay [5] relates to E. coli dnaK103. Description: Bacterial viability, dnaK103. In kind it is cell-based, Escherichia coli. As to conditions: 45 °C. How it is done: as §1, with “After a complete adsorption of liquid on the LB-agar surface, the plates were incubated overnight at 37 °C.” left out

Regarding `c1ccc(CNc2nc(NCc3ccccc3)c3ccccc3n2)cc1` [DBeQ, N^2,N^4-dibenzylquinazoline-2,4-diamine], the “effect on growth of E. coli” value in assay [1] (MC4100, 37 °C) was “suppressed the growth; also recorded: inhibited the growth”. Moreover, the “effect on viability of E. coli under heat shock” value in assay [1] (MC4100, 45 °C) is reported as “exacerbated by heat shock; also recorded: strongly inhibited”. The “effect on viability of E. coli at severe heat shock” value in assay [1] (MC4100, 50 °C) is listed as “lost viability at the lowest DBeQ concentrations tested”. Moreover, the Kd in assay [2] came out at 0.0785 µM. The “effect on ATP-dependent binding of casein to ClpB” value in assay [2] (80-μM DBeQ) is reported as “did not inhibit”. In assay [2] (80-μM DBeQ, 5-mM ATP), the “Hill number of ClpB–FITC-casein binding with DBeQ” value is listed as 1.48 and the “saturation signal of ClpB–FITC-casein binding with DBeQ” value stood at 0.11. In assay [3], the “Bmax (SPR signal at saturation), DnaK” value is given as 2.07 ± 0.20. For the same compound, in assay [3] (apparent Kd, DBeQ binding to DnaK, SPR, non-cooperative model, approximate, close to ligand solubility limit), the Kd was 105 µM and ~100 µM. For the same compound, the “susceptibility of ΔclpB strain on expression of ClpB–YFP” value in assay [4] is given as “susceptibility to DBeQ was restored”. In addition, in assay [5], the “effect on viability of dnaK103” value was “suppressed viability”.
